These results are taken from patent publication US8524765B2, “Compounds that modulate intracellular calcium” (Calcimedica, Inc., priority 2007, dated 2013).

The structures appear in SMILES notation. Like-named read-outs stand apart in the source and are kept apart here.

Holding throughout (assay type): cell-based
In one test the target is T1, hCav.1.2/β2/α2δ channels (Homo sapiens, UniProt Q13936).
T1 construct: host or cells: CHO cells
The test can be described thus: Cloned L-type calcium channels in CHO cells (PatchXpress patch clamp). The conditions noted are these: FIG. 16. How it is done: Compound A stock solutions were prepared in dimethyl sulfoxide (DMSO) and stored frozen. Compound A concentrations were prepared fresh daily by diluting stock solutions into an appropriate HEPES-buffered physiological saline solution. Each test compound formulation was sonicated at room temperatrue for at least 20 minutes to facilitate dissolution. A glass-lined 96-well compound plate was loaded with the appropriate amounts of test and control solutions, and placed in the plate well of PatchXpress®. The effects of five concentrations were evaluated. Stock solutions of the positive control were prepared in batches and frozen. The positive control concentration was prepared fresh daily by diluting stock solutions into HB-PS. The final DMSO concentration was 0.3%.
Cells were maintained in tissue culture incubators per ChanTest SOP. […]
In preparation for a recording session, intracellular solution was loaded into the intracellular compartments of the planar electrode. After establishment of a whole-cell configuration, membrane currents were recorded using dual-channel patch clamp amplifiers in the PatchXpress® system. […] Onset and steady state block of hCav.1.2/β2/α2δ channels were measured using a stimulus voltage pattern consisting of a depolarizing test pulse at 10 s intervals from a −80 mV holding potential. […] Peak current was measured during the step to 10 mV. […]
Background: In patch-clamp work, channel activity is measured electrically.

The subject of a further test is SOCE in rat T cells. The test can be described thus: SOCE in rat T cells. The conditions noted are these: T-cell, FIG. 5, read-out: IC50 for inhibition of SOCE.
In the next test the test system is Jurkat T cells. The test can be described thus: IL-2 secretion from Jurkat T cells (PHA+TPA, ELISA). The method, then:
To measure IL-2 secretion from Jurkat T cells, cells were plated in a 96 well plate at a density of 1.5×10^5 cells/well. Cells were stimulated with 2.5 μg/ml PHA lectin+80 nM TPA for 20 hr in the presence or absence of a compound of Formula (I) or Formula (II). The medium was then collected and analyzed for IL-2 levels by ELISA (BioSource) according to the manufacturer's protocols.
(In general: ELISA stands for enzyme-linked immunosorbent assay.)

The subject of a further test is rat T cells. In words: Cell proliferation of rat T cells. The conditions noted are these: FIG. 5, read-out: IC50 for inhibition of cell proliferation.
In a further test the test system is RBL-2H3 cells. In words: Degranulation (β-hexosaminidase release) assay. The following applies: Rattus norvegicus. The method, then:
To assess degranulation and cytokine release, RBL-2H3 cells were plated and stimulated with 20 nM thapsigargin/20 nM TPA for 20 hr in the presence or absence of compound of Formula (I) or Formula (II). Media was collected and assayed for the release of β-hexosaminidase or for the release of the inflammatory mediator cytokine TNF-α. The β-hexosaminidase enzymatic assay was performed by adding 200 μL 1 mM p-nitrophenyl-acetyl-glucosamide substrate (Sigma #N9376) in 0.05M Na Citrate (pH 4.5) to 50 μL of conditioned medium, incubating for 60 min at 37° C., then adding 500 μL 0.05M Na carbonate, 0.05M Na bicarbonate pH 10.5, mixing thoroughly, and reading the absorbance at 405 nm in a BioRad plate reader. The TNF-α release assay was performed using the Rat Tumor Necrosis Factor-a Ultrasensitive ELISA Kit from BioSource.

T1 sequence (Q13936 whole entry): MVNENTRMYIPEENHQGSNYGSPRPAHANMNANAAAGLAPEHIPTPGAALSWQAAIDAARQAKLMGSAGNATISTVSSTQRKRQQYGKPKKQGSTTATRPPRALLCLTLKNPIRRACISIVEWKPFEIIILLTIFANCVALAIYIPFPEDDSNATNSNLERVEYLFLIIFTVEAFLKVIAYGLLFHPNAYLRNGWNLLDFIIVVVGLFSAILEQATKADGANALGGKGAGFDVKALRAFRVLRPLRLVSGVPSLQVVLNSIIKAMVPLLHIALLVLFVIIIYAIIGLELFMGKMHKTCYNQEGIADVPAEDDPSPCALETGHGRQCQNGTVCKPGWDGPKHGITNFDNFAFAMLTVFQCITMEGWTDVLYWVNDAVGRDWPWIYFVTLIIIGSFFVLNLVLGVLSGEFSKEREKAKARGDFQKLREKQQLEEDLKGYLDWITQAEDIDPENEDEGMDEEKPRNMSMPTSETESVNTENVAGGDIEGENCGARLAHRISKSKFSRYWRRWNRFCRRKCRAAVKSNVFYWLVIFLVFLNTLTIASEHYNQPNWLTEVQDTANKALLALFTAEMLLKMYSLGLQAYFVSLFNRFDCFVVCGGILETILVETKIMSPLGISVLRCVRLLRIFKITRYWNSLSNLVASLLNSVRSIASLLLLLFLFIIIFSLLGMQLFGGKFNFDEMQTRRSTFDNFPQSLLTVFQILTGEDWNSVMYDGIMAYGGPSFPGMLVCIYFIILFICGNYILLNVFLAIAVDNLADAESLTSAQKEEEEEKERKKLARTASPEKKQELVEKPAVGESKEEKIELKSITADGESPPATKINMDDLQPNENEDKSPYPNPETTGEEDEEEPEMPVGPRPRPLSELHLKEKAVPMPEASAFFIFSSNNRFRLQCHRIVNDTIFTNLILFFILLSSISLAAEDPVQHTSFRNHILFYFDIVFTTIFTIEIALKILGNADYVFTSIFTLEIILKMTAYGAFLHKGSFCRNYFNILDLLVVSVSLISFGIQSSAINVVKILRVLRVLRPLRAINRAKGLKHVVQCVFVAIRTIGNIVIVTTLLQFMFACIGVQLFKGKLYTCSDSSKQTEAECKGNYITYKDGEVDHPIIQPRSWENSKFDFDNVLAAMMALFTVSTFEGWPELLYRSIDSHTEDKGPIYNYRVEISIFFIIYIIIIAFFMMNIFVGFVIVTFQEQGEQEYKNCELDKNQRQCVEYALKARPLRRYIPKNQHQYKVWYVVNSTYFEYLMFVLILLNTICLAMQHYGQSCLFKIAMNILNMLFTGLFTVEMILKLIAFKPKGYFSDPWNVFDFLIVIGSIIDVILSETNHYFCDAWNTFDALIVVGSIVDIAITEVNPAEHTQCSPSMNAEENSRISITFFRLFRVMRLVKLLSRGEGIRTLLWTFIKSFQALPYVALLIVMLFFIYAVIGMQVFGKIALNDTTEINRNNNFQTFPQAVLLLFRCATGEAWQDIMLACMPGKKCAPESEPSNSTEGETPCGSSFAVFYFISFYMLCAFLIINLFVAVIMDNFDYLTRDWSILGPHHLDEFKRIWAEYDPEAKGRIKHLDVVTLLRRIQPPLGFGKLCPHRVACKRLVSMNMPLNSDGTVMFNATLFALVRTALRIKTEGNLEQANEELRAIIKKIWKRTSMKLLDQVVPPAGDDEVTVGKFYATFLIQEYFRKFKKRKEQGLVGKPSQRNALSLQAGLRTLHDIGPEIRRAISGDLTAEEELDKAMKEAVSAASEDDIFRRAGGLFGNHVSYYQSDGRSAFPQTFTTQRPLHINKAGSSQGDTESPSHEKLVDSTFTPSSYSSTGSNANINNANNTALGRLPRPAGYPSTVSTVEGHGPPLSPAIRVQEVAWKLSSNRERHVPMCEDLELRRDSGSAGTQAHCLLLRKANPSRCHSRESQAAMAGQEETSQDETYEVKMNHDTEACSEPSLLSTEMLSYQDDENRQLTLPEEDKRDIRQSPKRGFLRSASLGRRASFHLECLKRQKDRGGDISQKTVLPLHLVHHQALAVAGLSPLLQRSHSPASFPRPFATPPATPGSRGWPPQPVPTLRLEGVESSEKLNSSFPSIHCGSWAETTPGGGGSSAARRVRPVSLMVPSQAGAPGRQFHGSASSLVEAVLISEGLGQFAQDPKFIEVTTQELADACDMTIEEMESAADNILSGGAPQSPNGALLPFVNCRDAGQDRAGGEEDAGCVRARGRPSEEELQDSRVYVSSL
T1 sequence (Q08289 whole entry partner): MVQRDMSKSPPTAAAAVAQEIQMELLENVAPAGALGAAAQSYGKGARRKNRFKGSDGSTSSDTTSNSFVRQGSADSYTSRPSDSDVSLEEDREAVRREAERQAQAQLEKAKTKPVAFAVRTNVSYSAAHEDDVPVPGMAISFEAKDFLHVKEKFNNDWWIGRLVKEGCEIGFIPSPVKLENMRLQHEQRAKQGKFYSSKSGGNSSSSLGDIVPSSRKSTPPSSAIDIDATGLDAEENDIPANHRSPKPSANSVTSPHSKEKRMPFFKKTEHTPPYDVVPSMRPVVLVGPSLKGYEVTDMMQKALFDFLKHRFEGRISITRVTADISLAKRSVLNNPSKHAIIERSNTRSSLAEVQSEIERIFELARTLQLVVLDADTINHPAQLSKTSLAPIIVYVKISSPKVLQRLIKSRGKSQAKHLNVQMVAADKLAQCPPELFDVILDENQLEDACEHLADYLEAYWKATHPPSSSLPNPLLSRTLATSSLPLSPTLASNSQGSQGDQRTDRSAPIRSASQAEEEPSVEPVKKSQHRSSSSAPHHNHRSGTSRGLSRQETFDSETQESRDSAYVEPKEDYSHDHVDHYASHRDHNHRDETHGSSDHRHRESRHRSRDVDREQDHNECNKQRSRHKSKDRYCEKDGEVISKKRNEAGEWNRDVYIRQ
T1 sequence (P54289 25-1103 partner): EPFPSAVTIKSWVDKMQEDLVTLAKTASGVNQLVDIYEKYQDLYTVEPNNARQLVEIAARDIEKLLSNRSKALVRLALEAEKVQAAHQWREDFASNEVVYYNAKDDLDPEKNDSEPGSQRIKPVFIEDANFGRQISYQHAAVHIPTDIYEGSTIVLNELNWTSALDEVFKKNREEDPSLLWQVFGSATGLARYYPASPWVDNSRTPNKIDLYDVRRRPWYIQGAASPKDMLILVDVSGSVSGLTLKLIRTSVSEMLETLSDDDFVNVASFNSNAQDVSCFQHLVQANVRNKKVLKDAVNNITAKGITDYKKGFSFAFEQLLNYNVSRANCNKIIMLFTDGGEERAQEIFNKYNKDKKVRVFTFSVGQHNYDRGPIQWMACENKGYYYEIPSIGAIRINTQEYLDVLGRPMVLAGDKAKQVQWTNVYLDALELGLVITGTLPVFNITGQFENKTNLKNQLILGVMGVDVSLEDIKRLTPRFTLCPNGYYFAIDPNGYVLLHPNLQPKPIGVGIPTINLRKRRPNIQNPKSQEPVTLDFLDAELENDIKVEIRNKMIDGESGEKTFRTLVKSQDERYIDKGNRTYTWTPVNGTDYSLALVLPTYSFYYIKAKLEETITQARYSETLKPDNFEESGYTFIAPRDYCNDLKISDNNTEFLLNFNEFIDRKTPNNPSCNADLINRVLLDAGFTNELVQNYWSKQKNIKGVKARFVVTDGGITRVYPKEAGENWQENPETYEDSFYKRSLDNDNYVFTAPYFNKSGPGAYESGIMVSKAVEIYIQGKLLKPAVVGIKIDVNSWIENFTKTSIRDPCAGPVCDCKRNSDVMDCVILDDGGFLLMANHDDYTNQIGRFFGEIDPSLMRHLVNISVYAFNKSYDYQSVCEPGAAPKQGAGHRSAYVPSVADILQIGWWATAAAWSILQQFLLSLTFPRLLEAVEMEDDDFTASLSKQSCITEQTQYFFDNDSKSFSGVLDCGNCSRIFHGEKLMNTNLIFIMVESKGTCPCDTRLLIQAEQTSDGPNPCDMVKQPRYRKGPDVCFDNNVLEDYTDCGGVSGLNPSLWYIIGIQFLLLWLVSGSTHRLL

Consider `O=C(Nc1scc(-c2ccc(Br)cc2)c1C(=O)O)c1ccc(F)cc1` [Compound 1, 2-(4-fluorobenzamido)-4-(4-bromophenyl)thiophene-3-carboxylic acid], for which the “effect on recombinant Cav1.2 L-type Ca2+ channels” value at hCav.1.2/β2/α2δ channels is listed as “inhibits”. Besides, the IC50 in the test on SOCE in rat T cells is around 2400 nM; in the test on Jurkat T cells (Homo sapiens, Jurkat T cells stimulated with PHA+TPA, FIG. 7, read-out: IC50 for inhibition of IL-2 release) it was around 500 nM; in the test on rat T cells, around 4300 nM; in the test with RBL-2H3 cells (RBL-2H3, 2 hour TG/TPA induction in HBSS+1% serum, 10 minute pretreatment, FIG. 4, read-out: IC50 for inhibition of degranulation, presence of serum) it was 1000 to 3000 nM; in the test with RBL-2H3 cells (RBL-2H3, 2 hour TG/TPA induction in HBSS, 10 minute pretreatment, FIG. 4, read-out: apparent IC50 for inhibition of degranulation, absence of serum), below 300 nM; in the test with RBL-2H3 cells (RBL-2H3 cells induced with TG/TPA, FIG. 3, read-out: IC50 for inhibition of degranulation) it was 2600 nM. The “effect of combination with cyclosporin A on IL-2 secretion” value in the test on Jurkat T cells (Jurkat T cells stimulated with PHA/TPA, Compound 1 together with cyclosporin A, FIG. 10) is “additive effects”.
